From US20210017231A1, “ATP1A1-TARGETING POLYPEPTIDE AND USE THEREOF” (SUN YAT-SEN UNVIERSITY CANCER CENTER (SYSUCC), priority 2017, published 2021)
Bridge positions count the residues as written; N and C are the ends. Primed or numbered codes have the meaning given here. Ends that are not written are not given here. FITC′ = fluorescein isothiocyanate label; Cy5 = Cy5 dye label

Columns and labels:
[1] = tested on: human breast cancer MDA-MB-231 cells; assay: Confocal laser scanning microscopy (immunofluorescence) of biotin peptide binding to cells; type: cell-based; conditions: MDA-MB-231 versus human normal breast MCF-10A cells
Source text: The binding of Biotin-C (Biotin-SEQ ID NO:2) and Biotin-S3 (Biotin-SEQ ID NO:1) polypeptide to human breast cancer MDA-MB-231 cells was detected by confocal laser scanning microscopy. Meanwhile, the inventors compared it with the binding of the above polypeptides to human normal breast MCF-10A cells. The particular experimental procedure was as follows:
1) digesting cells with trypsin and plating the cells in a 24-well plate provided with a slide, 1×10^5/well;
2) adding Biotin-C (Biotin-SEQ ID NO:2), Biotin-S3 (Biotin-SEQ ID NO:1) polypeptide to the cells, 200 μg/well, and incubating at 37° C. for 2 h;
3) discarding the cell incubation solution;
4) fixing the cells with 4% paraformaldehyde for 10 min;
5) washing five times with 0.1% PBST, 500 μl/well, and washing off unbound polypeptides;
6) destroying the membranes with 0.1% Triton, and washing once with PBST, 500 μl/well;
7) blocking with 5% BSA, 30 min;
8) adding anti-Biotin Streptavidin (1:1000) into the wells, and incubating at 4° C. for 12 h;
9) washing three times with 0.1% PBST, 5 min/time;
10) adding anti-Streptavidin conjugated FITC (1:1000) into the wells, and incubating at room temperature for 45 min;
11) washing three times with 0.1% PBST, 5 min/time;
12) staining cell membranes with WGA (1:1000), and incubating at room temperature for 10 min;
13) washing three times with 0.1% PBST, 5 min/time; […]

[2] = tested on: breast cancer MDA-MB-231 cells; assay: Polypeptide blocking experiment (ELISA on cells); type: cell-based, human; conditions: 5, 10, 20 μg/μl S3 polypeptide
Method: An enzyme-linked immunosorbent assay was used to detect the binding of S3 phage to breast cancer MDA-MB-231 cells, and then to detect whether […] could block the binding of […] to breast cancer MDA-MB-231 cells. The specific procedure was as follows:
2) digesting cells with trypsin, counting, and uniformly plating the cells in a 96-well plate, 1×10^4/well;
3) in the blocking experiment, adding 5, 10, 20 μg/μl S3 polypeptide and incubating at 37° C. for 1 h;
4) in the targeting experiment, adding phages in a concentration gradient of 1.0×10^9, 2.0×10^9, 4.0×10^9, 8.0×10^9, […] pfu/well, incubating at 37° C. for 2 h for binding; in the blocking experiment, adding 20 μg/μl of Biotin-S3 polypeptide;
5) discarding the cell incubation solution;
6) fixing the cells with 4% paraformaldehyde for 10 min;
7) washing five times with 0.1% PBST, 270 μl/well;
8) destroying the membranes with 0.1% Triton, and washing once with PBST, 270 μl/well;
9) blocking with 5% BSA for 30 min;
10) adding 1:1000 diluted anti-M13 conjucted HRP by 50 μl/well, and incubating at room temperature for 1 h;
11) washing five times with 0.1% PBST;
12) developing color with a TMB kit; and 13) reading at OD 450 nm by a microplate reader.

[3] = tested on: breast cancer MDA-MB-231 cells; assay: Flow cytometry binding of fluorescent peptide to cells; type: cell-based, human; conditions: 10 μM, on ice 20 min, FIG. 1C
Method: The binding of FITC-S3 (SEQ ID NO:3) fluorescent peptide to breast cancer MDA-MB-231 cells was detected by flow cytometry. The inventors first synthesized a fluorescent peptide in which the […] and Con peptide were conjugated to a fluorescent dye FITC, and then incubated FITC-S3 (SEQ ID NO:3) fluorescent peptide with the cells, and finally detected the binding thereof by flow cytometry. The particular experimental procedure was as follows:
1) digesting cells with trypsin, counting, and adjusting the concentration thereof to be 1.0×10^6 cells/tube, resuspending the cells with 100 μl serum-free 1640 medium;
2) adding FITC-C or […] in PBS (10 μM), and incubating the cells on ice for binding for 20 min;
3) washing three times with 0.1% PBST, 1 ml/time, and centrifuging at 400 g for 5 min;
4) resuspending the cells with 500 μl PBS; and
5) detecting by flow cytometry.

[4] = tested on: esophageal cancer KYSE30 tumor; assay: Infrared fluorescent molecular imaging of esophageal cancer tumor-bearing mice; type: in vivo; conditions: 48 hours after tail vein injection, FIGS. 2D, 2E
Source text: (§1) According to the above procedure, the Cy5-S3 (Cy5-SEQ ID NO:1) fluorescent peptides were applied in esophageal cancer KYSE30 tumor-bearing and nasopharyngeal carcinoma CNE2 mouse models, in order to detect whether Cy5-S3 (Cy5-SEQ ID NO:1) fluorescent peptide can be imaged with infrared fluorescent molecular imaging in other tumors.

[5] = tested on: nasopharyngeal carcinoma CNE2 tumor; assay: Infrared fluorescent molecular imaging of nasopharyngeal carcinoma mouse model; type: in vivo, mice; conditions: 48 hours after tail vein injection, FIG. 2F
Source text: as §1

[6] = tested on: breast cancer MDA-MB-231 tumors; assay: Infrared fluorescent molecular imaging of breast cancer tumor-bearing mice; type: in vivo
Source text: Tumor-bearing mice were used for the infrared fluorescence molecular imaging experiment to detect the distribution of Cy5-S3 (Cy5-SEQ ID NO:1) fluorescent peptide in various organs and tumors of the tumor-bearing mice. The experimental procedure of the imaging experiment of small living animals was as follows: 1) taking out nine male NOD SCID mice of 4-week old; 2) digesting breast cancer MDA-MB-231 cells with trypsin, counting, and adjusting the concentration to be 5.0×10^7 cells/ml, resuspending the cells with 20% Matrigel DMEM, and injecting with 200 μl/mouse; 3) observing tumor formation for 1-2 weeks, measuring the sizes of the tumors, and randomizing the mice into three groups according to the sizes of the tumors, i.e. […] 4) dissolving 300 μg fluorescent peptides in 200 μl PBS, injecting the fluorescent peptides into the tail veins of the mice, and dynamically detecting the distribution of the fluorescent peptides in various organs and tumors of the nude mice by using a small living animal imaging instrument. 5) taking out every organ and tumor, homogenizing, measuring the fluorescence intensity of each organ and tumor, and making statistical analysis.

## CSISSLTHC [Peptide S3, ATP1A1-targeting polypeptide, SISSLTH motif with Cys at both terminals]
[1]
  targeting of breast cancer cells compared to normal breast MCF-10A cells: obvious property of targeting breast cancer cells
[2]; 20 μg/μl Biotin-S3, FIG. 1B
  blocking of the binding of Biotin-S3 polypeptide to breast cancer cells: can block the binding
[2]; FIG. 1B
  concentration dependence of the blocking effect: concentration-dependent

## CSISSLTHC-GGGS-FITC (CSISSLTHCGGGS-{FITC′}; disulfide 1-9 (inferred)) [FITC-S3, S3 peptide conjugated to fluorescent dye FITC]
[3]
  binding ability to breast cancer MDA-MB-231 cells versus FITC-control fluorescent peptide: stronger than that of FITC-control fluorescent peptide

## Cy5-CSISSLTHC (disulfide 1-9 (inferred)) [Cy5-S3, Cy5 fluorescent S3 peptide]
[4]
  infrared fluorescent molecular imaging of esophageal cancer: can also be used for the infrared fluorescent molecular imaging
[5]
  infrared fluorescent molecular imaging of nasopharyngeal carcinoma: can also be used for the infrared fluorescent molecular imaging
[6]; 48 hours after tail vein injection, FIG. 2C
  content of fluorescent peptide in unit weight of the tumor versus other organs: significantly higher than that in other organs
[6]; mouse, in vivo
  enrichment in tumor by tissue analysis of dissected mice: significantly enriched in the tumor
  enrichment in tumors by infrared imaging of the living mice: obviously enriched in the tumors
